Measured values published in ChEMBL document CHEMBL4400506, “8-Hydroxy-2-(1H-1,2,3-triazol-1-yl)-1,4-naphtoquinone derivatives inhibited P2X7 Receptor-Induced dye uptake into murine Macrophages” (Bioorg Med Chem, 2019).
Active and inactive are the calls of the source. The calls are words filed in the database; no cut-off is given here.

Columns and labels:
Peritoneal macrophage = assay: Cytotoxicity against Swiss Webster mouse peritoneal macrophages assessed as plasma membrane disruption at 100 uM measured after 24 hrs by dextran rhodamine dye based fluorescence assay; format: cell-based
[1] = molecular target: T1, P2X purinoceptor 7 (Mus musculus) (UniProt Q9Z1M0); assay: Antagonist activity at P2X7R in Swiss Webster mouse peritoneal macrophages assessed as inhibition of propidium iodide uptake preincubated for 10 mins propidium iodide addition measured after 5 mins by fluorescence microscopic analysis
T1 sequence (whole entry): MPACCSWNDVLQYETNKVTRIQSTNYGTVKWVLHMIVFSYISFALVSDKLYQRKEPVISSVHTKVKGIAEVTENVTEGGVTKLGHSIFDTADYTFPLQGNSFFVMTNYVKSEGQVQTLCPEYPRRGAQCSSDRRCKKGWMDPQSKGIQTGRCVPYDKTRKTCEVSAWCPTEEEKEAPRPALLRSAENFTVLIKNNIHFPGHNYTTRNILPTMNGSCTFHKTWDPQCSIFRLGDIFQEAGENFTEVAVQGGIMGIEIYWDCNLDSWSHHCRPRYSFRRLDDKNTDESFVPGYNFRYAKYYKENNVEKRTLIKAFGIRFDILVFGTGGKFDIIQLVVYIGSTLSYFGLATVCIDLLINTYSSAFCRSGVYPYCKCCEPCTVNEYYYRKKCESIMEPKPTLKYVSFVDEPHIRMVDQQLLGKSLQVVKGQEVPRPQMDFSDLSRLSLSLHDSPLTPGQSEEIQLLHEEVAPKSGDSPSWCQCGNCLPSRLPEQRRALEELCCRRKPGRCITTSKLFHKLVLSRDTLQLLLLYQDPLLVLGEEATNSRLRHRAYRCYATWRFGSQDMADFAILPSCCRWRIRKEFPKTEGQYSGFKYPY

[2] = molecular target: T1, P2X purinoceptor 7 (Mus musculus); assay: Antagonist activity at P2X7R in Swiss Webster mouse peritoneal macrophages assessed as inhibition of ATP-induced propidium iodide uptake preincubated for 10 mins followed by ATP induction for 25 mins and subsequent propidium iodide addition for last 5 mins by fluorescence microscopic analysis
P2X purinoceptor 7 = molecular target: T2, P2X purinoceptor 7 (Homo sapiens, UniProt Q99572); assay: Antagonist activity at human P2X7R expressed in HEK293 cells assessed as inhibition of ATP-induced […] uptake preincubated for 5 mins followed by ATP induction and measured after 25 mins by fluorescence assay; format: cell-based
T2 sequence (Q99572 whole entry): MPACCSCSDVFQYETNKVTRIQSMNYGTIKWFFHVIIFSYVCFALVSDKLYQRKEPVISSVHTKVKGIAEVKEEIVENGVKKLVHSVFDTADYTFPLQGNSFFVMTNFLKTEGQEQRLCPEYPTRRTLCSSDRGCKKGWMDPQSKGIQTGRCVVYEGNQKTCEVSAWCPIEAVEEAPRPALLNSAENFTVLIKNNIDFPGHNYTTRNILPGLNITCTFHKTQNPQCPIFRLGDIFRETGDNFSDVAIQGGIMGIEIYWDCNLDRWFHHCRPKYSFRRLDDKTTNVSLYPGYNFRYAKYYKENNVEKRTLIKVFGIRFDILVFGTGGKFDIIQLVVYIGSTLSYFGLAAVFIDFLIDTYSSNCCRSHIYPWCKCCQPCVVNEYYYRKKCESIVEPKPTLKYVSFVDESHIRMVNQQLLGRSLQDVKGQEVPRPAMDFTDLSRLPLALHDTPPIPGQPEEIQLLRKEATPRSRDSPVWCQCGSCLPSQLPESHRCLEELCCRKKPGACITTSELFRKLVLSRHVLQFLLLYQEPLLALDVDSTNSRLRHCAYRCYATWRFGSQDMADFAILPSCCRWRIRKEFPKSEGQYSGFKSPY

[3] = Intrinsic clearance in mouse liver microsomes assessed per mg protein at 1 uM measured in presence of NADPH; format: ADME, Microsome; conditions: read-out: CLH
[4] = Intrinsic clearance in human liver microsomes assessed per mg protein at 1 uM measured in presence of NADPH; format: ADME, Microsome; conditions: read-out: CLH
[5] = Apparent permeability across apical to basolateral side in human Caco2 cells at 100 uM measured after 60 mins by lucifer yellow staining based fluorescence assay; format: ADME, cell-based; conditions: Caco-2
[6] = Octanol-PBS distribution co-efficient, log D of the compound at 25 mM at pH 7.4 after 2 hrs by shake flask method; format: physicochemical

| SMILES | Activity (Peritoneal macrophage) | inhibition [1] | inhibition [2] | IC50 (P2X purinoceptor 7) [nM] | microsomal CLint at 1 µM [3] [µL/min/mg] | microsomal CLint at 1 µM [4] [µL/min/mg] | Papp A→B at 1 h, 100 µM [5] [×10⁻⁶ cm/s] | logD at 2 h, 25000 µM [6] |
| --- | --- | --- | --- | --- | --- | --- | --- | --- |
| CC(C)CC(C)(O)c1cn(C2=CC(=O)c3cccc(O)c3C2=O)nn1 (stereo unspecified) | Non-Toxic | inactive | inactive | – | – | – | – | – |
| COc1ccc(CC(=O)NC(N/C(=N/C#N)Nc2cccc3ncccc23)C(C)(C)C)cc1OC (stereo unspecified) | Non-Toxic | inactive | Active | 750 | – | – | – | – |
| CCCCc1cn(C2=CC(=O)c3cccc(O)c3C2=O)nn1 | Non-Toxic | inactive | Active | 230 | 40.6 | 46.1 | 71.8 | -1.24 |
| CCOc1ccc(Nc2ccc(/C(=C3C=C/C(=[N+](/CC)Cc4cccc(S(=O)(=O)[O-])c4)C=C/3C)c3ccc(N(CC)Cc4cccc(S(=O)(=O)[O-])c4)cc3C)cc2)cc1.[Na+] [BRILLIANT BLUE G] | Non-Toxic | inactive | Active | 1370 | – | – | – | – |
| O=C1C=C(n2cc(-c3ccccc3)nn2)C(=O)c2c(O)cccc21 | Toxic | inactive | inactive | – | – | – | – | – |
| CCCc1cn(C2=CC(=O)c3cccc(O)c3C2=O)nn1 | Toxic | inactive | inactive | – | – | – | – | – |
| O=C1C=C(n2cc(CCCCl)nn2)C(=O)c2c(O)cccc21 | Non-Toxic | inactive | Active | 103 | 3.1 | 1.2 | 41.6 | -0.42 |
| CCC(C)(O)c1cn(C2=CC(=O)c3cccc(O)c3C2=O)nn1 (stereo unspecified) | Non-Toxic | inactive | inactive | – | – | – | – | – |
